# Data reported in patent US20100158808A1, “Altered Activity of Toll-Like Receptors” (priority 2003, published 2010).
# Assays:
# [1] = biological target: T1, TLR4/MD2 complex (Mus musculus, UniProt Q9JHF9+Q9QUK6); test: Cell surface expression of TLR4/MD2 in HEK/TLR4(+) cells by flow cytometry; type: cell-based, murine
# T1 construct: expressed in transfected cells; host or cells: HEK 293 clone HEK/TLR4(+)
# T1 sequence (Q9QUK6 26-835): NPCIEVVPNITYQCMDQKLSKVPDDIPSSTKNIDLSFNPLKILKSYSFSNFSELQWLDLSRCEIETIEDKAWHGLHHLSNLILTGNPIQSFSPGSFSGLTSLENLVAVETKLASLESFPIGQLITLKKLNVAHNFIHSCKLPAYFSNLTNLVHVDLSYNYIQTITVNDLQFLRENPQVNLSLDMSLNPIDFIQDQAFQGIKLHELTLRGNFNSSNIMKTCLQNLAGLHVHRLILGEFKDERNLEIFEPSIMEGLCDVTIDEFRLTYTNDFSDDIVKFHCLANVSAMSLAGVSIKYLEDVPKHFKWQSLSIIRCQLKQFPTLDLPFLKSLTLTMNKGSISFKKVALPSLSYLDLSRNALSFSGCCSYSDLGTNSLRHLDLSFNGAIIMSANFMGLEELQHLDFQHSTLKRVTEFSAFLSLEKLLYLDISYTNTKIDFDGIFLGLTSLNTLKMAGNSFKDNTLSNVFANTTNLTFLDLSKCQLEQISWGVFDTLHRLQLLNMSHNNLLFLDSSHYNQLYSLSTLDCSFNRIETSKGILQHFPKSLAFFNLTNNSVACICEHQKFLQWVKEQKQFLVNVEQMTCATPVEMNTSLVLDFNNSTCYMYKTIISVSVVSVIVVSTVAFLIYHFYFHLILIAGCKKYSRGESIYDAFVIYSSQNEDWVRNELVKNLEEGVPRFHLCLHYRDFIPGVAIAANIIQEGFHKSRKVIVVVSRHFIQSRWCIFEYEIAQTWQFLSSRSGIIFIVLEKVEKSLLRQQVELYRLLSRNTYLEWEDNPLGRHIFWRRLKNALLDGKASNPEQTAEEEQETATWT
# T1 sequence (Q9JHF9 19-160): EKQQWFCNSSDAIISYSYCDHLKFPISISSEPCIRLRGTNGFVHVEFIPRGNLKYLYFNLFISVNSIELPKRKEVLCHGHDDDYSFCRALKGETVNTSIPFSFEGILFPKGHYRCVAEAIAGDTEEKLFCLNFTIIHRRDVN
# Procedure: FIG. 2A is a graph plotting the level of reporter activity in HEK/TLR4(+) cells transfected with NFκB- and control-luciferase reporter plasmids and then stimulated with intact HS or LPS, or with HS or LPS that had been treated with nitrous acid (HNO2) at pH 4.0 or pH 1.5. Controls were treated with PBS vehicle. […] FIG. 2C is a graph showing the effect of PBS, HS, depolymerized HS (nitrous acid, pH 1.5), and recombinant human IL-1α on cell surface expression of TLR4/MD2 in HEK/TLR4(+) cells. Expression of TLR4 on the cell surface was determined by flow cytometry using a monoclonal antibody specific to the TLR4/MD2 complex. Values are the mean of triplicate wells and are representative of three separate experiments.
# To determine whether the effect of HS occurred through specific action on TLR4, surface expression of the TLR4/MD2 complex on cells treated with HS was examined. […] Thus, HEK/TLR4(+) cells responded to HS by activating NFκB and mobilizing receptor complexes.
# [2] = biological target: T2, TLR4 (Mus musculus, UniProt Q9JHF9+Q9QUK6); test: NFκB-luciferase reporter assay in HEK 293 cells stably expressing TLR4, MD2 and/or CD14; type: cell-based, murine; design: expressed in transfected cells; host or cells: HEK 293; conditions: HEK 293 cells lacking TLR4 and MD2 or CD14
# T2 sequence (Q9QUK6 26-835): T1 sequence (Q9QUK6 26-835)
# T2 sequence (Q9JHF9 19-160): T1 sequence (Q9JHF9 19-160)
# Procedure: Model ECM environment. Tissue culture plates were coated with ECM as follows. PAEC were seeded into 6-well (3×10^5 cells/well), 24-well (5×10^4 cells/well) or 100 mm (2×10^5 cells) fibronectin-coated tissue culture plates (BD Biosciences, San Jose, Calif.) in DMEM (Invitrogen) containing 10% fetal bovine serum supplemented with penicillin and streptomycin and 4% w/v of Dextran 40. The cell cultures were incubated at 37° C. in 5% CO2 humidified atmosphere for seven days and were supplemented with […] on day three and day five. After 7 days, endothelial cells were washed once with phosphate buffered saline (PBS) and lysed by exposure to 0.5% w/v Triton X-100 and 20 mM NH4OH in PBS (pH 7.4) at 37° C. for 20 minutes (Bonifacino, 1998). The wells were then washed 4 times with PBS (pH 7.4) and inspected microscopically to ensure removal of the cells. Plates were used immediately or were stored in PBS (pH 7.4) with […] at 4° C.
# HEK 293 cells were stably transfected with the TLR4 and MD2 or CD14 expression plasmids using Superfect (Qiagen, Valencia, Calif.) following the manufacturer's instructions. HEK 293 cells expressing TLR4 and MD2 or CD14 were obtained by culturing the transfected cells with appropriate antibiotic selection medium, and were cloned by limiting dilution in the selection medium. HEK 293 cells expressing TLR4, MD2 and CD14 were generated by transfecting HEK 293 cells that expressed TLR4 and MD2 with the CD14 expression plasmid, and selecting clones using appropriate antibiotic containing medium. Cell lines expressing TLR4 and MD2 and/or CD14 were then maintained in DMEM supplemented with 10% fetal bovine serum and the appropriate selection antibiotics. Control cell lines were transfected with empty expression vectors and incubated in selection conditions as described above. Selected clones were tested for cell surface expression of the TLR4/MD2 complex and CD14 by flow cytometry using monoclonal antibodies specific for the TLR4/MD2 complex or CD14.
# NFκB-luciferase reporter assays. Activation of NFκB was measured using a NFκB-luciferase reporter assay. HEK 293 cell lines stably expressing TLR4, MD2 and/or CD14, or control cells were seeded into 24 well tissue culture plates (2×10^5 cells/well) in 1.0 ml DMEM containing 10% fetal bovine serum and penicillin and streptomycin. The cells were allowed to adhere to the culture wells at 37° C. overnight and were then transfected with […] NFκB-firefly-luciferase using Superfect Transfection Reagent (Qiagen). Following transfection, the cells were washed once with phosphate buffered saline and cultured for 24 hours at 37° C. in 1.0 ml DMEM containing 0.5% fetal bovine serum. After various treatments, the culture medium was aspirated and the cells were washed once with PBS. The cells were lysed in […] Passive Lysis Buffer (Promega) with rocking at room temperature for 15 minutes. Renilla- and Firefly-luciferase were assayed simultaneously using the Dual-Luciferase Reporter Assay System (Promega) and a TD-20/20 luminometer (Turner Designs, Sunnyvale, Calif.). Activation of NFκB was reported as a ratio of the firefly luciferase activity to the constitutively expressed Renilla luciferase internal control, and is the mean of triplicate wells.
# To determine whether and under what conditions HS stimulates TLR4, various combinations of TLR4, MD2 and CD14, components of the putative TLR4 receptor complex, were stably expressed in HEK 293 cells and the effect of HS on TLR4 signaling in the transfected cells was examined (FIG. 1). The HEK 293 cells expressing receptor components were transiently transfected with a NFκB-firefly luciferase reporter construct along with a Renilla-luciferase internal control reporter construct. […]
# [3] = test system: mice; test: Experimental shock model (SIRS), D-galactosamine, i.p. injection; type: in vivo; conditions: for Survival in shock model: mice, i.p. with D-galactosamine
# Procedure: Experimental shock model. Age- and sex-matched mice were injected with 5 mg of HS, 5 μg of LPS, 5 μg of Limulus anti-LPS factor, 5 mg of chondroitin sulfate, 200 U (−5 mg) heparin, 150 μg of CpG DNA, 1.5 U of elastase, or PBS mixed with 20 mg of D-galactosamine in a total volume of 500 μl of PBS by i.p. injection as previously described (Franks et al. (1991) Infect. Immun. 59:2609). Concentrations of HS and elastase were calculated by weight of lyophilized powder, and the doses used were near the LD50 based on dose-response experiments. In some experiments, the agonist was mixed with 5 or 20 μg of Limulus anti-LPS factor before injection. For some injections, enzymes were boiled at 100° C. for 60 minutes and vortexed vigorously, or preincubated with elastase inhibitor-1 for 4 hours at room temperature and then mixed with D-galactosamine before injection. Mice were monitored every hour for 48 hours and then euthanized.
# During sepsis, Gram-negative bacteria shed LPS, which activates TLR4 on cells that then release inflammatory cytokines mediating systemic inflammation and death (Beutler (2000) Curr. Opin. Immunol. 12:20). To determine whether soluble HS can induce a model of systemic inflammatory response syndrome (SIRS) via activation of TLR4 in mice, HS was administered by i.p. injection to TLR4 wild type and mutant mice. This mouse model system has been used to study shock and a sepsis-like syndrome in response to microbial toxins (Galanos et al. (1979) Proc. Natl. Acad. Sci. USA 76:5939). […] Moreover, the observed responses were not due to contamination of HS by LPS, since the HS used was not contaminated with LPS.
substance,measurement,setting,value
"recombinant human IL-1α: recombinant human IL-1α, activates NFκB via the IL-1 receptor",Change in surface expression of TLR4/MD2,[1],did not change
same,Activation of NFκB-luciferase reporter,[2],activated
chondroitin sulfate,Survival in shock model,[3],all but one mouse
Boc-Ala-Ala-Ala-NHO-Bz [elastase inhibitor-1],Reduction of the death rate after elastase injection,[3]; elastase preincubated with elastase inhibitor-1 for 4 hours,50%
heparin,Survival in shock model,[3],survived
